Assay results from patent US20090029983A1, “NOVEL HETEROCYCLIC COMPOUNDS HAVING ANTI-HBV ACTIVITY” (priority 2005, published 2009).
pEC50: −log10 of the molar value.

What follows are molecules tested on HBV (assay: HBV screening assay (viral DNA in baculovirus-HBV transduced HepG2 cells)). Conditions: Hepatitis B virus, HepG2, 72 h, read-out: EC50 (antiviral activity), HBV-transduced HepG2 cells, three days with compound, viral DNA by ELISA.
Format: cell-based
Description: HepG2 cells were transduced using a baculovirus to deliver the HBV genome essentially as previously described (Delaney et al. in Hepatology 1998; 28: 1134-1146). Transduced cells were cultured in supplemented EMEM media with 10% fetal bovine serum in a 5% CO2 incubator at 37° C. for three days in the presence of test compounds. The cells were lysed in a buffer containing 0.5% NP-40 and […] proteinase K. A solid-phase hybridization was performed to capture the viral DNA and to label the target DNA with Digoxigenin-labeled DNA probes. The viral DNA was detected by ELISA, using horseradish peroxidase-conjugated anti-digoxigenin antibodies.
The EC50 values were determined using ExcelFit software from the inhibition values of a titration curve for each compound. For CC50 determinations, the same titration of compounds was co-cultured with non-transduced HepG2 for three days under the conditions described above. The Promega CellTiter 96 Aqueous One Solution Cell Proliferation Assay was used to measure cell proliferation/viability. The CC50 values were determined using ExcelFit software from the inhibition values of the titration curve for each compound.

First: NC(=O)c1sc2nc3c(c(-c4cccs4)c2c1N)CN(C(=S)NCC1CCCO1)C3 (stereo not shown) [Compound 80, 3-Amino-6-[(tetrahydro-furan-2-ylmethyl)-thiocarbamoyl]-4-thiophen-2-yl-6,7-dihydro-5H-1-thia-6,8-diaza-s-indacene-2-carboxylic acid amide]
Second: NC(=O)c1sc2nc3c(c(-c4cccs4)c2c1N)CN(C(=O)CCl)C3 [Compound 104, 3-Amino-6-(2-chloro-acetyl)-4-thiophen-2-yl-6,7-dihydro-5H-1-thia-6,8-diaza-s-indacene-2-carboxylic acid amide]
The pEC50 of the first is lower: less than 5.00 for the first, 5.00 to 6.00 for the second. The second is the more potent here.

First: CC(C)CCN1Cc2nc3sc(C(N)=O)c(N)c3c(-c3cccs3)c2C1 [Compound 6, 3-Amino-6-(3-methyl-butyl)-4-thiophen-2-yl-6,7-dihydro-5H-1-thia-6,8-diaza-s-indacene-2-carboxylic aicd amide]
Second: NC(=O)c1sc2nc3c(c(-c4cccs4)c2c1N)CN(CCO)C3 [Compound 15, 3-Amino-6-(2-hydroxy-ethyl)-4-thiophen-2-yl-6,7-dihydro-5H-1-thia-6,8-diaza-s-indacene-2-carboxylic acid amide]
The pEC50 of the first is lower: less than 5.00 for the first, 5.00 to 6.00 for the second. The second is the more potent here.

`NC(=O)c1sc2nc3c(c(-c4cccs4)c2c1N)CCC3CC(=O)NCc1ccccn1` (stereo not shown) [Compound 45, 3-Amino-7-{[(pyridin-2-ylmethyl)-carbamoyl]-methyl}-4-thiophen-2-yl-6,7-dihydro-5H-cyclopenta[b]thieno[3,2-e]pyridine-2-carboxylic acid amide] and `NC(=O)c1sc2nc3c(c(-c4cccs4)c2c1N)CCC3CC(=O)NCc1ccc(C(F)(F)F)cc1` (stereo not shown) [Compound 47, 3-Amino-4-thiophen-2-yl-7-[(4-trifluoromethyl-benzylcarbamoyl)-methyl]-6,7-dihydro-5H-cyclopenta[b]thieno[3,2-e]pyridine-2-carboxylic acid amide] cannot be ordered by pEC50: less than 5.00 for the first, less than 5.00 for the second.

Going from `NC(=O)c1sc2nc3c(c(-c4cccs4)c2c1N)CN(C(=S)Nc1cccc(C(F)(F)F)c1)C3` [Compound 87, 3-Amino-4-thiophen-2-yl-6-(3-trifluoromethyl-phenylthiocarbamoyl)-6,7-dihydro-5H-1-thia-6,8-diaza-s-indacene-2-carboxylic acid amide] to `NC(=O)c1sc2nc3c(c(-c4cccs4)c2c1N)CN(C(=S)Nc1ccsc1)C3` [Compound 100, 3-Amino-4-thiophen-2-yl-5,7-dihydro-1-thia-6,8-diaza-s-indacene-2,6-dicarboxylicacid 2-amide 5-thiophen-3-ylamide], the pEC50 rises from less than 5.00 to greater than 6.00.

`NC(=O)c1sc2nc3c(c(-c4cccs4)c2c1N)CCC3C1CCCC1` (stereo not shown) [Compound 61, 3-Amino-7-cyclopentyl-4-thiophen-2-yl-6,7-dihydro-5H-cyclopenta[b]thieno[3,2-e]pyridine-2-carboxylic acid amide] and `CCCC1CCCc2c1nc1sc(C(N)=O)c(N)c1c2-c1cccs1` (stereo not shown) [Compound 65, 3-Amino-8-propyl-4-thiophen-2-yl-5,6,7,8-tetrahydro-thieno[2,3-b]quinoline-2-carboxylic acid amide] fall in the same range of pEC50: 5.00 to 6.00 for the first, 5.00 to 6.00 for the second.

`NC(=O)c1sc2nc3c(c(-c4cccs4)c2c1N)CCC3CC(=O)N1CCC(O)CC1` (stereo not shown) [Compound 52, 3-Amino-7-[2-(4-hydroxy-piperidin-1-yl)-2-oxo-ethyl]-4-thiophen-2-yl-6,7-dihydro-5H-cyclopenta[b]thieno[3,2-e]pyridine-2-carboxylic acid amide] and `NC(=O)c1sc2nc3c(c(-c4cccs4)c2c1N)CCC3CC(=O)N1CCOCC1` (stereo not shown) [Compound 38, 3-Amino-7-(2-morpholin-4-yl-2-oxo-ethyl)-4-thiophen-2-yl-6,7-dihydro-5H-cyclopenta[b]thieno[3,2-e]pyridine-2-carboxylic acid amide] cannot be ordered by pEC50: less than 5.00 for the first, less than 5.00 for the second.

`COC(=O)CC1CCc2c1nc1sc(C(N)=O)c(N)c1c2-c1cccs1` (stereo not shown) [Compound 40, 3-Amino-7-carbomethoxymethyl-4-thiophen-2-yl-6,7-dihydro-5H-cyclopenta[b]thieno[3,2-e]pyridine-2-carboxylic acid amide] and `NC(=O)c1sc2nc3c(c(-c4cccs4)c2c1N)CCC3CC(=O)O` (stereo not shown) [Compound 36, 3-Amino-7-carboxymethyl-4-thiophen-2-yl-6,7-dihydro-5H-cyclopenta[b]thieno[3,2-e]pyridine-2-carboxylic acid amide] cannot be ordered by pEC50: less than 5.00 for the first, less than 5.00 for the second.

First: NC(=O)c1sc2nc3c(c(-c4cccs4)c2c1N)CN(C(=O)Nc1ccc(N2CCOCC2)nc1)C3 [Compound 102, 3-Amino-4-thiophen-2-yl-5,7-dihydro-1-thia-6,8-diaza-s-indacene-2,6-dicarboxylicacid 2-amide 6-[(6-morpholin-4-yl-pyridin-3-yl)-amide]]
Second: NC(=O)c1sc2nc3c(c(-c4cccs4)c2c1N)CN(CC(=O)c1ccc(Cl)cc1)C3 [Compound 12, 3-Amino-6-[2-(4-chloro-phenyl)-2-oxo-ethyl]-4-thiophen-2-yl-6,7-dihydro-5H-1-thia-6,8-diaza-s-indacene-2-carboxylic acidamide]
The pEC50 of the first is lower: less than 5.00 for the first, 5.00 to 6.00 for the second.

`CCC1CCc2nc3sc(C(N)=O)c(N)c3c(-c3cccs3)c2C1` (stereo not shown) [Compound 73, 3-Amino-6-ethyl-4-thiophen-2-yl-5,6,7,8-tetrahydro-thieno[2,3-b]quinoline-2-carboxylic acid amide] and `CC1CCc2nc3sc(C(N)=O)c(N)c3c(-c3cccs3)c2C1` (stereo not shown) [Compound 72, 3-Amino-6-methyl-4-thiophen-2-yl-5,6,7,8-tetrahydro-thieno[2,3-b]quinoline-2-carboxylic acid amide] cannot be ordered by pEC50: less than 5.00 for the first, less than 5.00 for the second.

`COc1cc(CN2Cc3nc4sc(C(N)=O)c(N)c4c(-c4cccs4)c3C2)cc(OC)c1` [Compound 24, 3-Amino-6-(3,5-dimethoxy-benzyl)-4-thiophen-2-yl-6,7-dihydro-5H-1-thia-6,8-diaza-s-indacene-2-carboxylic acid amide] and `NC(=O)c1sc2nc3c(c(-c4cccs4)c2c1N)CN(Cc1cccc(F)c1)C3` [Compound 23, 3-Amino-6-(3-fluoro-benzyl)-4-thipohen-2-yl-6,7-dihydro-5H-1-thia-6,8-diaza-s-indacene-2-carboxylic acid amide] cannot be ordered by pEC50: less than 5.00 for the first, less than 5.00 for the second.

First: NC(=O)c1sc2nc3c(c(-c4cccs4)c2c1N)CN(Cc1ccccn1)C3 [Compound 7, 3-Amino-6-pyridin-2-ylmethyl-4-thiophen-2-yl-6,7-dihydro-5H-1-thia-6,8-diaza-s-indacene-2-carboxylic acid amide]
Second: NC(=O)c1sc2nc3c(c(-c4cccs4)c2c1N)CN(Cc1cccnc1)C3 [Compound 20, 3-Amino-6-pyridin-3-ylmethyl-4-thiophen-2-yl-6,7-dihydro-5H-1-thia-6,8-diaza-s-indacene-2-carboxylic acid amide]
The pEC50 of the first is lower: less than 5.00 for the first, greater than 6.00 for the second. The second is the more potent here.

`NC(=O)c1sc2nc3c(c(-c4cccs4)c2c1N)CCCC3c1ccccc1` (stereo not shown) [Compound 66, 3-Amino-8-phenyl-4-thiophen-2-yl-5,6,7,8-tetrahydro-thieno[2,3-b]quinoline-2-carboxylic acid amide] and `NC(=O)c1sc2nc3c(c(-c4cccs4)c2c1N)CNC3` [Compound 2, 3-Amino-4-thiophen-2-yl-6,7-dihydro-5H-1-thia-6,8-diaza-s-indacene-2-carboxylic acidamide] fall in the same range of pEC50: 5.00 to 6.00 for the first, 5.00 to 6.00 for the second.

`CCCCCN1Cc2nc3sc(C(N)=O)c(N)c3c(-c3cccs3)c2C1` [Compound 16, 3-Amino-6-pentyl-4-thiophen-2-yl-6,7-dihydro-5H-1-thia-6,8-diaza-s-indacene-2-carboxylic acid amide] and `NC(=O)c1sc2nc3c(c(-c4cccs4)c2c1N)CN(CC1CC1)C3` [Compound 8, 3-Amino-6-cyclopropylmethyl-4-thiophen-2-yl-6,7-dihydro-5H-1-thia-6,8-diaza-s-indacene-2-carboxylic acid amide] cannot be ordered by pEC50: less than 5.00 for the first, less than 5.00 for the second.

`CC1CCCCN1CCCNC(=O)CC1CCc2c1nc1sc(C(N)=O)c(N)c1c2-c1cccs1` (stereo not shown) [Compound 58, 3-Amino-7-{[3-(2-methyl-piperidin-1-yl)-propylcarbamoyl]-methyl}-4-thiophen-2-yl-6,7-dihydro-5H-cyclopenta[b]thieno[3,2-e]pyridine-2-carboxylic acid amide] and `NC(=O)c1sc2nc3c(c(-c4cccs4)c2c1N)CCC3CC(=O)NCCCN1CCOCC1` (stereo not shown) [Compound 57, 3-Amino-7-[(3-morpholin-4-yl-propylcarbamoyl)-methyl]-4-thiophen-2-yl-6,7-dihydro-5H-cyclopenta[b]thiano[3,2-e]pyridine-2-carboxylic acid amide] cannot be ordered by pEC50: less than 5.00 for the first, less than 5.00 for the second.

First: Cc1ccc(-c2c3c(nc4sc(C(N)=O)c(N)c24)CCN(Cc2ccccc2)C3)o1 [Compound 33, 3-Amino-6-benzyl-4-(5-methyl-furan-2-yl)-5,6,7,8-tetrahydro-thieno[2,3-b][1,6]naphthyridine-2-carboxylic acidamide]
Second: COc1ccccc1-c1nc(CN2Cc3nc4sc(C(N)=O)c(N)c4c(-c4cccs4)c3C2)no1 [Compound 5, 3-Amino-6-[5-(2-methoxy-phenyl)-[1,2,4]oxadiazol-3-ylmethyl]-4-thiophen-2-yl-6,7-dihydro-5H-1-thia-6,8-diaza-s-indacene-2-carboxylic acid amide]
The pEC50 of the first is lower: less than 5.00 for the first, 5.00 to 6.00 for the second. The second is the more potent here.

Work on `CC(C)CCNC(=O)CC1CCc2c1nc1sc(C(N)=O)c(N)c1c2-c1cccs1` (stereo not shown) [Compound 48, 3-Amino-7-[(3-methyl-butylcarbamoyl)-methyl]-4-thiophen-2-yl-6,7-dihydro-5H-cyclopenta[b]thieno[3,2-e]pyridine-2-carboxylic acid amide] yielded a pEC50 of less than 5.00.
